Several values for one entry are separate records, joined by “and”; a condition that tells them apart may be missing. Identical values can stand only once. Like-named read-outs stand apart in the source and are kept apart here.
What was measured:
SiHa cells [1] = assay: IC50 assay modified for chronic hypoxia (oxia, hypoxia, anoxia); assay type: cell-based; conditions: for IC50: Homo sapiens
Description: There are relatively few viable cells in tumors at O2 concentrations as low as in the above anoxic experiments. In addition, extensive changes in gene expression occur under chronic exposure to intermediate O2 concentrations (chronic hypoxia), including the expression of proteins that regulate pHi. […] Therefore, oxic and anoxic exposures were also tested in these same experiments. The 24 h adaptation to hypoxia had little effect on the subsequent growth of the cultures at either pHe value (Figure S6).
To minimize problems with poor cell attachment under chronic hypoxia, the drugs were added from a 3-fold dilution series made in a separate plate, rather than by serial dilution in the plates containing the cells. In addition, the drugs were removed after the 4 h exposure by centrifuging the plates (200g × 5 min) prior to each aspiration. The same modifications were used for the oxic drug exposures in these experiments.

SiHa cells [2] = assay: IC50 assay (inhibition of proliferation, 4 h exposure, SRB); conditions: SiHa; for IC50: Homo sapiens, 4 h
Summary of the method: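 Cells exposed to compound for 4 h in titrated medium, then washed and regrown 5 days under standard conditions (oxia, pHe 7.4). Growth read by sulforhodamine B staining; IC50 from 4-parameter logistic regression of duplicate cultures.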

SiHa cells [3] = assay: Cellular uptake in stirred aerobic single cell suspensions (HPLC, 3H-mannitol correction)
Description: In these experiments, cell pellets were collected by centrifugation and ^3H-mannitol was used as a cell-excluded marker to enable correction for the entrapped extracellular medium.
Log-phase cultures were dissociated with trypsin/EDTA, followed by the addition of the medium with DNAase I (Sigma DN-25) at 100 μg/mL for 5 min at 37 °C to minimize clumping. The cell pellets were collected by centrifugation and resuspended in αMEM with 5% FBS at pH 7.4 or 6.5 to 2 × 10^6 cells/mL. Samples (12 mL) were equilibrated with magnetic stirring at 37 °C under flowing humidified 5% CO2/air or N2 (50–100 mL/min), as previously described [86]. After equilibration for 60 min, the compounds were added in 50 μL of DMSO. The samples (5 mL) were withdrawn 5 and 60 min later, where the cell pellets were then collected by centrifugation and 4 mL of the supernatant was discarded. The pellets were resuspended in the remaining 1 mL, transferred to microcentrifuge tubes containing 7 μL ^3H-mannitol (740 GBq/mmol, American Radiolabeled Chemicals Inc., St. Louis, MO) as an extracellular marker, and then centrifuged (11,000g × 30s). The supernatant was removed and frozen at −80 °C (extracellular samples) and the tubes were centrifuged again, and any remaining medium was carefully removed. Ice-cold MeOH (80 μL) was added to the pellets which were disrupted by pipetting and stored at −80 °C (intracellular samples). When these were thawed for HPLC analysis (Section 4.12), the volume of extracellular water trapped in the pellets was determined by the scintillation counting (PerkinElmer Tri-Carb B2910TR Liquid Scintillation) of 25 μL of each extracellular and intracellular sample in 3 mL of Emulsifier-Safe™ scintillation cocktail (PerkinElmer). The extracellular volume in each intracellular sample was used to correct the intracellular drug concentration as previously described [87].
The samples were analyzed using an Agilent 1200 HPLC with a diode array absorbance detector and autosampler maintained at 4 °C (Agilent Technologies). The frozen samples were thawed, then centrifuged (11,000g × 5 min), and then extracellular samples were injected directly (typically 20 μL), while for the intracellular samples 30 μL was mixed 1:1 with αMEM and 50 μL was injected. […] All calibration curves were linear (R^2 > 0.999). The column was an Agilent ZORBAX Eclipse (XDB-C18, 5u, 2.1 × 150 mm, Agilent Technologies) with a flow rate of 0.4 mL/min. For SN30000 (2), the mobile phase was a mixture of 80% MeCN/water v/v (A), and a 45 mM formate buffer at a pH 4.5, eluting with a linear gradient of 5–100% A over 18 min. The same method was used for the BTO acids, except for 4a, where the aqueous mobile phase pH was reduced to 3.5.
Values are mean and SEM for 3 replicates. ND: Not detected.

SiHa cells [4] = assay: Effect of phenylpyruvate (MCT pan-inhibition) on cytotoxicity under anoxia; conditions: anoxic SiHa cells
Description: Effect of phenylpyruvate (PPV, 100 or 500 μM) on proliferation of SiHa cells following 4 h
exposure under anoxia to PPV alone (A) or with cmpd 4a at pHe 7.4 (B) or pHe 6.5 (C). 3000 cells/well
were seeded in 96 well plates, and IC 50 values determined as in Figure S6. Each data point is mean ±
SEM for three replicate cultures in the same experiment.

[5] = Solubility in AlphaMEM + 5% FBS, pH 7.4; conditions: culture medium (AlphaMEM + 5% FBS), pH 7.4, plasma or biological fluid, kinetic from dmso stock
UT-SCC-74B cells = assay: IC50 assay (inhibition of proliferation, 4 h exposure, SRB); assay type: cell-based; conditions: UT-SCC-74B, UT-SCC-74B; for IC50: Homo sapiens, 4 h
Description: Cells were seeded in 96-well plates (SiHa or FaDu 1500 cells/well, UT-SCC-74B 800 cells/well) in 100 μL. After incubation for 2 h, the drugs were added in 50 μL of the same titrated medium at 3× the final concentration to duplicate the wells. After a further 4 h the plates were checked for drug precipitation using a phase contrast microscope, then drugs were removed by aspirating and washing with the standard (pH 7.4) medium, then aspirating again and adding 150 μL of the medium. Cultures were then grown for 5 days before staining with sulphorhodamine B and measuring absorbance, with the estimation of IC50 values using 4-parameter logistic regression, as previously carried out.
The medium and plasticware was equilibrated in the chamber for 3 days prior to use. In the anoxia experiments, FaDu cells were plated in poly-L-lysine coated plates (Corning Cat # 356461) to improve attachment. […]
Footnotes: a Number of experiments. b Anoxic cytotoxicity ratio = oxic IC50/anoxic IC50. c pH
cytotoxicity ratio = IC50 at pHe 7.4/ IC50 at pHe 6.5. d Overall ratio = oxic IC50 pHe 7.4 / anoxic IC50 pHe
6.5. Values are means and errors are SEM. For ratios, the errors are root mean square SEM. […]

[6] = test system: MDCK-II cells with forced expression of BCRP or Pgp; assay: IC50 under anoxia in cells with forced expression of efflux transporters; conditions: MDCK-II cell lines under anoxia, preliminary experiments
Description: expression of BCRP or Pgp.
Cells were seeded at 300 cells/well in DMEM with 10% FBS in 96 well plates in an
anaerobic chamber, allowed to attach for 2 h then exposed to drugs for 4 h under anoxia. Cells were
then washed with fresh medium and grown for 5 days under aerobic conditions before staining with
SRB. Values are mean ± SEM from 2 separate experiments.

[7] = One-electron reduction potentials by pulse radiolysis; assay type: physicochemical; conditions: pH 7.0, equilibrium with redox indicator shown in square brackets
Summary of the method: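 Redox equilibria at pH 7.0 (2.5 mM phosphate) established within 50 μs between one-electron reduced compound and viologen references MV^2+, TQ^2+ or V21^2+, generated by 4 MeV linac pulse radiolysis with time-resolved optical absorption. E^0′ vs NHE derived via Nernst equation from equilibrium constants, corrected for ionic strength.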

FaDu cells = assay: IC50 assay (inhibition of proliferation, 4 h exposure, SRB); assay type: cell-based; conditions: for IC50: Homo sapiens, 4 h
Description: Cells were seeded in 96-well plates (SiHa or FaDu 1500 cells/well, UT-SCC-74B 800 cells/well) in 100 μL. After incubation for 2 h, the drugs were added in 50 μL of the same titrated medium at 3× the final concentration to duplicate the wells. After a further 4 h the plates were checked for drug precipitation using a phase contrast microscope, then drugs were removed by aspirating and washing with the standard (pH 7.4) medium, then aspirating again and adding 150 μL of the medium. Cultures were then grown for 5 days before staining with sulphorhodamine B and measuring absorbance, with the estimation of IC50 values using 4-parameter logistic regression, as previously carried out [85].

PCR (IC50 for pHe 7.4/IC50 for pHe 6.5) (SiHa cells [1]; 0.2% O2): 1.39 ± 0.19
PCR (IC50 for pHe 7.4/IC50 for pHe 6.5) (SiHa cells [1]; 20% O2): 1.98 ± 0.93
PCR (IC50 for pHe 7.4/IC50 for pHe 6.5) (SiHa cells [1]; <0.01% O2): 1.86 ± 0.59
IC50 (SiHa cells [1]; 0.2% O2 (24 h before and during 4 h exposure), pHe 6.5): 308 ± 1 µM
IC50 (SiHa cells [1]; 0.2% O2 (24 h before and during 4 h exposure), pHe 7.4): 428 ± 57 µM
IC50 (SiHa cells [1]; 4 h, 20% O2, pHe 6.5, 4 h): 707 ± 321 µM
IC50 (SiHa cells [1]; 4 h, 20% O2, pHe 7.4, 4 h): 1400 ± 162 µM
IC50 (SiHa cells [1]; 4 h, <0.01% O2, pHe 6.5, 4 h): 160 ± 45 µM
IC50 (SiHa cells [1]; 4 h, <0.01% O2, pHe 7.4, 4 h): 298 ± 44 µM
ACR (IC50 for 20% O2/IC50 for <0.01% O2) (SiHa cells [1]; pHe 6.5): 4.42 ± 2.36
HCR (IC50 for 20% O2/IC50 for 0.2% O2) (SiHa cells [1]; pHe 6.5): 2.30 ± 1.04
ACR (IC50 for 20% O2/IC50 for <0.01% O2) (SiHa cells [1]; pHe 7.4): 4.70 ± 0.88
HCR (IC50 for 20% O2/IC50 for 0.2% O2) (SiHa cells [1]; pHe 7.4): 3.28 ± 0.58
Uptake (Ci/Ce) at 4 °C relative to 37 °C (SiHa cells [3]; SiHa cell suspensions, data not shown): undetectable
Ci/Ce, pHe 6.5 Obs 5 min (SiHa cells [3]; aerobic SiHa suspensions, pHe 6.5, 5 min): <0.1
Ci/Ce, pHe 6.5 Obs 60 min (SiHa cells [3]; aerobic SiHa suspensions, pHe 6.5, 60 min): <0.1
Ci/Ce, pHe 7.4 Obs 5 min (SiHa cells [3]; aerobic SiHa suspensions, pHe 7.4, 5 min): <0.1
Ci/Ce, pHe 7.4 Obs 60 min (SiHa cells [3]; aerobic SiHa suspensions, pHe 7.4, 60 min): <0.1
solubility [5]: 17.1 mM
E^0′ one-electron reduction potential [7]: −399 mV and −399 ± 7 [MV^2+] mV
Compound: O=C(O)CCc1n[n+]([O-])c2ccccc2[n+]1[O-] [Compound 4a, 3-(2-Carboxyethyl)benzo[e][1,2,4]triazine 1,4-Dioxide]
IC50 (SiHa cells [2]; read-out: Anoxic IC50, SiHa, pHe 6.5, 4 h, anoxic): 97 ± 4 µM
IC50 (SiHa cells [2]; read-out: Anoxic IC50, SiHa, pHe 7.4, 4 h, anoxic): 259 ± 26 µM
IC50 (SiHa cells [2]; read-out: Oxic IC50, SiHa, pHe 6.5, 4 h, oxic): 798 ± 43 µM
IC50 (SiHa cells [2]; read-out: Oxic IC50, SiHa, pHe 7.4, 4 h, oxic): 1950 ± 170 µM
TMR (overall TME ratio = oxic IC50 pHe 7.4/anoxic IC50 pHe 6.5) (SiHa cells [2]): 20.2 ± 2.0
PCR Anoxic (IC50 at pHe 7.4/IC50 at pHe 6.5) (SiHa cells [2]; anoxic): 2.68 ± 0.29
PCR oxic (IC50 at pHe 7.4/IC50 at pHe 6.5) (SiHa cells [2]; oxic): 2.45 ± 0.25
ACR (anoxic cytotoxicity ratio = oxic IC50/anoxic IC50) (SiHa cells [2]; pHe 6.5): 8.26 ± 0.58
IC50 fold higher than for SN30000 (SiHa cells [2]; pHe 6.5 under anoxia, representative experiment): approximately 50 fold
ACR (anoxic cytotoxicity ratio = oxic IC50/anoxic IC50) (SiHa cells [2]; pHe 7.4): 7.54 ± 1.00
PCR (pH cytotoxicity ratio) (SiHa cells [2]; representative experiment (Figure 3), oxia and anoxia): ~ 2.5
ACR (anoxia cytotoxicity ratio) (SiHa cells [2]; representative experiment (Figure 3), pHe 7.4 and 6.5): ~ 8
Effect of pan-inhibition of MCT by phenylpyruvate on sensitivity (SiHa cells [4]): no effect
IC50 (UT-SCC-74B cells; pHe 6.5, 4 h, 20% O2, read-out: Oxic IC50): 297 ± 74 µM
IC50 (UT-SCC-74B cells; pHe 6.5, 4 h, <0.01% O2, read-out: Anoxic IC50): 97.6 ± 12.3 µM
IC50 (UT-SCC-74B cells; pHe 7.4, 4 h, 20% O2, read-out: Oxic IC50): 863 ± 66 µM
IC50 (UT-SCC-74B cells; pHe 7.4, 4 h, <0.01% O2, read-out: Anoxic IC50): 225 ± 26 µM
TME ratio (oxic IC50 pHe 7.4/anoxic IC50 pHe 6.5) (UT-SCC-74B cells): 8.84 ± 1.30
PCR Anoxic (IC50 at pHe 7.4/IC50 at pHe 6.5) (UT-SCC-74B cells; anoxic): 2.31 ± 0.39 and 2.9
PCR oxic (IC50 at pHe 7.4/IC50 at pHe 6.5) (UT-SCC-74B cells; oxic): 2.91 ± 0.76 and 2.3
ACR (oxic IC50/anoxic IC50) (UT-SCC-74B cells; pHe 6.5): 3.04 ± 0.85
ACR (oxic IC50/anoxic IC50) (UT-SCC-74B cells; pHe 7.4): 3.84 ± 0.53
Effect of overexpression of BCRP or Pgp efflux transporters on sensitivity [6]: no effect
TMR (oxic IC50 pHe 7.4/anoxic IC50 pHe 6.5) (FaDu cells): 9.36 ± 1.68
IC50 (FaDu cells; pHe 6.5, 4 h, anoxic, read-out: Anoxic IC50): 142 ± 21 µM
IC50 (FaDu cells; pHe 6.5, 4 h, oxic, read-out: Oxic IC50): 507 ± 27 µM
IC50 (FaDu cells; pHe 7.4, 4 h, anoxic, read-out: Anoxic IC50): 325 ± 18 µM
IC50 (FaDu cells; pHe 7.4, 4 h, oxic, read-out: Oxic IC50): 1330 ± 136 µM
PCR Anoxic (IC50 at pHe 7.4/IC50 at pHe 6.5) (FaDu cells; anoxic): 2.29 ± 0.36
PCR oxic (IC50 at pHe 7.4/IC50 at pHe 6.5) (FaDu cells; oxic): 2.62 ± 0.30
ACR (oxic IC50/anoxic IC50) (FaDu cells; pHe 6.5): 3.58 ± 0.56
ACR (oxic IC50/anoxic IC50) (FaDu cells; pHe 7.4): 4.08 ± 0.48

Reference: publication PMC6680510, “Benzotriazine Di-Oxide Prodrugs for Exploiting Hypoxia and Low Extracellular pH in Tumors” (Molecules, 2019)
